Experiment [1] deals with T1, ITK (Homo sapiens, UniProt Q08881).
T1 sequence (Q08881 1-620): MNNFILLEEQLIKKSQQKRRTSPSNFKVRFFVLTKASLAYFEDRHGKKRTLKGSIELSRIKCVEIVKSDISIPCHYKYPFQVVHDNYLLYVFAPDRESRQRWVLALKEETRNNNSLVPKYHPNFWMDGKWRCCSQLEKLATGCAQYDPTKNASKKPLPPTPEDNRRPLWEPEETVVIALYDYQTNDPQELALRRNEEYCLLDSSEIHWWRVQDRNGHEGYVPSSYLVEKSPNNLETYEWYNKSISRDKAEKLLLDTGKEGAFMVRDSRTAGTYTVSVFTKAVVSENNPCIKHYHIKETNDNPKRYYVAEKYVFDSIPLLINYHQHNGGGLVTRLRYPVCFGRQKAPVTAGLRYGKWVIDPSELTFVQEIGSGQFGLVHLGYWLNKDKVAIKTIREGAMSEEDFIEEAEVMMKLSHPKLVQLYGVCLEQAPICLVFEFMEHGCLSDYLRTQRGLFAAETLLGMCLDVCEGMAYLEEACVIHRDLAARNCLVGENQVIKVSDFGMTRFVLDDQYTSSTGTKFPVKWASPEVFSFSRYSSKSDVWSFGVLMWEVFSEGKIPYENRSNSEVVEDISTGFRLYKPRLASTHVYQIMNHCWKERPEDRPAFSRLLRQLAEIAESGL
Nature of the experiment: Jump dilution assay. It is filed as binding. Also on record: purchased Invitrogen. As for the experimental part: The assay format is similar to the Competitive Tracer-binding Assay and relies on the reversible binding of tracer 236 to recombinant tagged human ITK. […] The mixture was then filtered through a desalting column (Thermo Scientific, Zeba Spin Desalting Column, 40K MWCO) to remove unbound inhibitor. The assay was initiated immediately after the desalting step by diluting the eluate containing the inhibited kinase complex 50-fold into a solution of anti-tag antibody (2 nM final) and excess tracer 236 (40 nM final). Dissociation of inhibitor and binding of tracer was monitored immediately after assay initiation using an EnVision plate reader (excitation 340 nm, dual emission at 665 nm and 615 nm). Reagents including GST-tagged recombinant human ITK, Kinase tracer 236, Lanthascreen Eu-Anti-GST antibody and kinase buffer A were purchased from ThermoFisher Scientific/Invitrogen. Each data point represents the mean of technical triplicates. Equation 3 was fitted to the BMS-509744 data to obtain the rate constant using GraphPad Prism from which the half-life was calculated.

Experiment [2] concerns other TEC kinases. The conditions noted are these: literature; cited from earlier work.

Entries after “also recorded” stand apart in the source; their conditions may differ.

In the case of `COc1cc(C)c(Sc2cnc(NC(=O)c3ccc(CNC(C)C(C)(C)C)cc3)s2)cc1C(=O)N1CCN(C(C)=O)CC1` (stereo not drawn) [BMS-509744, reference compound], in experiment [1] (dilution into competitive probe), the “reversibility of ITK inhibition on dilution” value was “reversible; also recorded: rapid dissociation”. In addition, in experiment [1] (dilution into excess tracer 236), the “half-life of inhibitor-ITK complex” value came to 2.6 min. In the case of `C=CC(=O)N1CCC[C@@H]1Cn1c(NC(=O)c2ccc(C(F)F)s2)nc2cc(CN[C@@H](C)C(C)(C)C)ccc21` [PRN694], in experiment [2], the “inhibition of other TEC kinases” value is reported as “significant inhibition”.

The values are drawn from patent US20250213587A1, “ITK INHIBITORS FOR INCREASING TH1 CELL ACTIVITY” (Corvus Pharmaceuticals, Inc., priority 2022, published 2025).
